Source: patent US20230364057A1, “BACTERIAL DNA GYRASE INHIBITORS AND METHODS OF USE THEREOF” (THE FLORIDA INTERNATIONAL UNIVERSITY BOARD OF TRUSTEES, priority 2022, published 2023)
≈ marks a conversion by molar mass, not a printed value.

Key:
[1] = target: T1, E. coli DNA gyrase (Escherichia coli (strain K12), UniProt P0AES4+P0AES6); experiment: biochemical; format: biochemical
[2] = target: T1, E. coli DNA gyrase; experiment: Agarose gel-based DNA gyrase inhibition assay; format: biochemical
Procedure: 100 ng of DNA gyrase was used to supercoil the rx pAB1 in the presence of different concentrations of a gyrase inhibitor. […] Samples were analyzed by electrophoresis in 1% w/v agarose gels followed by ethidium bromide staining and photographed under UV light.

[3] = system: MRSA; experiment: Minimum inhibitory concentration, broth microdilution; conditions: Staphylococcus aureus, MRSA, read-out: Minimum Inhibitory Concentration S.aureus MRSA
[4] = system: S. aureus (ATCC 14775); experiment: as above; conditions: Staphylococcus aureus, ATCC14775, read-out: Minimum Inhibitory Concentration S.aureus
[5] = IC50 (50-200 µM), bin of Table 2
[6] = IC50 ([…]-50 µM), bin of Table 2
[7] = IC50 (15-[…] µM), bin of Table 2
[8] = IC50 against E. coli DNA gyrase

CN(C)c1ccc(/C=C2/C(=O)N(CCc3ccc(F)cc3)C(=O)N=C2O)cc1 [Compound 38]
IC50 [1, 5]: 50 to 200 µM
inhibition of E. coli DNA gyrase activities ([2]; 200 µM of compounds): completely inhibited

O=C(O)c1cc(N2N=C(C(F)(F)F)/C(=C/C=C/c3ccco3)C2=O)ccc1Cl [Compound 49]
IC50 [1, 6]: 25 to 50 µM
inhibition of E. coli DNA gyrase activities ([2]; 50 µM of compounds): almost completely inhibited
inhibition of E. coli DNA gyrase activities ([2]; 200 µM of compounds): completely inhibited

O=C1NC(=S)S/C1=C/c1ccc(OC(=O)c2ccco2)cc1 [Compound 51]
IC50 [1, 5]: 50 to 200 µM
inhibition of E. coli DNA gyrase activities ([2]; 200 µM of compounds): almost completely inhibited

CCCn1c(/C=C/c2ccco2)nc2ccccc21 [Compound 53]
IC50 [1, 5]: 50 to 200 µM
inhibition of E. coli DNA gyrase activities ([2]; 50 µM of compounds): almost completely inhibited
inhibition of E. coli DNA gyrase activities ([2]; 200 µM of compounds): completely inhibited

COC(=O)c1c(NC(=O)CC2Nc3ccccc3NC2=O)sc(C)c1C (stereo not drawn) [Compound 55]
IC50 [1, 5]: 50 to 200 µM
MIC [3]: 25 µM (≈ 9.34 µg/mL)
inhibition of E. coli DNA gyrase activities ([2]; 200 µM of compounds): almost completely inhibited

O=C(NCc1cccnc1)c1ccc(-c2cccc(Cl)c2Cl)o1 [Compound 56]
IC50 [1, 5]: 50 to 200 µM
inhibition of E. coli DNA gyrase activities ([2]; 200 µM of compounds): almost completely inhibited

CCOC(=O)C1=C(Nc2ccc(C)cc2)S/C(=C\c2ccc(-c3ccccc3C(=O)O)o2)C1=O [Compound 60]
IC50 [1, 5]: 50 to 200 µM
inhibition of E. coli DNA gyrase activities ([2]; 200 µM of compounds): completely inhibited

O=C1/C(=C/c2ccc(O)cc2)SC(=S)N1CC1CCCO1 (stereo not drawn) [Compound 61]
IC50 [1, 5]: 50 to 200 µM
inhibition of E. coli DNA gyrase activities ([2]; 200 µM of compounds): almost completely inhibited

O=C(O)CC(C(=O)O)N1C(=O)/C(=C/c2ccc(-c3nc4ccccc4s3)o2)SC1=S (stereo not drawn) [Compound 62]
IC50 [1, 5]: 50 to 200 µM
inhibition of E. coli DNA gyrase activities ([2]; 50 µM of compounds): almost completely inhibited
inhibition of E. coli DNA gyrase activities ([2]; 200 µM of compounds): completely inhibited

Cc1cc(/C=C(/C#N)c2nc3ccccc3[nH]2)c(C)n1-c1cc(C(=O)O)cc(C(=O)O)c1 [Compound 63]
IC50 [1, 5]: 50 to 200 µM
inhibition of E. coli DNA gyrase activities ([2]; 200 µM of compounds): completely inhibited

Cc1cc(C(=O)Nc2ccccc2C(=O)O)ccc1NC(=O)COc1ccccc1Cl [Compound 65]
IC50 [1, 5]: 50 to 200 µM
inhibition of E. coli DNA gyrase activities ([2]; 200 µM of compounds): almost completely inhibited

CCOC(=O)C1=C(C)NC(=O)NC1c1ccc(N2CCC(c3ccccc3)=N2)cc1 (stereo not drawn) [Compound 68]
IC50 [1, 5]: 50 to 200 µM
inhibition of E. coli DNA gyrase activities ([2]; 200 µM of compounds): almost completely inhibited

Cc1cc(-c2csc(N)n2)c(C)n1-c1ccccc1.Cl [Compound 70]
IC50 [1, 5]: 50 to 200 µM
inhibition of E. coli DNA gyrase activities ([2]; 200 µM of compounds): completely inhibited

O=C(O)C1Nc2ccccc2C2C=CCC12 (stereo not drawn) [Compound 83]
inhibition of E. coli DNA gyrase activities [1]: inhibit E. coli DNA gyrase strongly
IC50 [1, 5]: 50 to 200 µM
inhibition of E. coli DNA gyrase activities ([2]; 50 µM of compounds): almost completely inhibited
inhibition of E. coli DNA gyrase activities ([2]; 200 µM of compounds): completely inhibited

c1ccc(Nc2nc(N3CCCC3)c3ccccc3n2)cc1 [Compound 102]
IC50 [1, 6]: 25 to 50 µM
inhibition of E. coli DNA gyrase activities ([2]; 50 µM of compounds): completely inhibited

Cc1cc2c3c(c1)C1CC=CC1C(C(=O)O)N3CC1CC=CC21 (stereo not drawn) [Compound 106]
inhibition of E. coli DNA gyrase activities [1]: inhibit E. coli DNA gyrase strongly
IC50 [1, 5]: 50 to 200 µM
inhibition of E. coli DNA gyrase activities ([2]; 50 µM of compounds): potently inhibited

CNc1nnc(-c2ccc(C)cc2)c2ccccc12 [Compound 108]
MIC [4]: 200 µM (≈ 49.9 µg/mL)
IC50 [1, 7]: 15 to 25 µM
MIC [3]: 200 µM (≈ 49.9 µg/mL)
inhibition of E. coli DNA gyrase activities ([2]; 50 µM of compounds): completely inhibited

Cc1onc(-c2ccccc2)c1C(=O)Nc1sccc1C#N [Compound 112]
IC50 [1, 5]: 50 to 200 µM
inhibition of E. coli DNA gyrase activities ([2]; 50 µM of compounds): potently inhibited

C(=Cc1ccco1)c1nc2ccccc2[nH]1 [Compound 129]
IC50 [1, 5]: 50 to 200 µM
inhibition of E. coli DNA gyrase activities ([2]; 50 µM of compounds): potently inhibited

CCOc1ccc(S(=O)(=O)Nc2nc3ccccc3nc2Nc2ccc(N3CCOCC3)cc2)cc1 [Compound 130]
IC50 [1, 5]: 50 to 200 µM
inhibition of E. coli DNA gyrase activities ([2]; 50 µM of compounds): potently inhibited

N#CC(C#N)=C1C=CC=CN1C(=Cc1ccccc1)C(=O)c1cccs1 [Compound 131]
IC50 [1, 5]: 50 to 200 µM
inhibition of E. coli DNA gyrase activities ([2]; 50 µM of compounds): potently inhibited

CCOC(=O)[C@@H]1Nc2ccc(C(=O)O)cc2[C@@H]2C=CC[C@H]12 [Compound 141]
inhibition of E. coli DNA gyrase activities [1]: inhibit E. coli DNA gyrase strongly
inhibition of E. coli DNA gyrase activities ([2]; 50 µM of compounds): potently inhibited

Cc1cccc(/N=C2/NC(=O)/C(=C\C=C\c3ccco3)S2)c1C [Compound 149]
IC50 [1, 7]: 15 to 25 µM
inhibition of E. coli DNA gyrase activities ([2]; 50 µM of compounds): completely inhibited

O=C1N/C(=N\c2ccc3ccccc3c2)S/C1=C/c1ccco1 [Compound 163]
IC50 [1, 7]: 15 to 25 µM
inhibition of E. coli DNA gyrase activities ([2]; 50 µM of compounds): completely inhibited

O=C(/C=C/c1ccco1)Nc1cccc2cccnc12 [Compound 164]
MIC [4]: 200 µM (≈ 52.9 µg/mL)
MIC [3]: 200 µM (≈ 52.9 µg/mL)

N#Cc1sc2nc(-c3ccccc3)cc(-c3ccco3)c2c1N [Compound 167]
IC50 [1, 5]: 50 to 200 µM
inhibition of E. coli DNA gyrase activities ([2]; 50 µM of compounds): potently inhibited

O=C1/C(=C/c2ccc(O)cc2)SC(=S)N1Cc1cccnc1 [Compound 168]
IC50 [1, 5]: 50 to 200 µM
inhibition of E. coli DNA gyrase activities ([2]; 50 µM of compounds): potently inhibited

Cc1ccc(/N=C2N=C(O)/C(=C/C=C/c3ccco3)S\2)cc1C [Compound 169]
IC50 [1, 7]: 15 to 25 µM
inhibition of E. coli DNA gyrase activities ([2]; 50 µM of compounds): completely inhibited

Cc1cc(/C=C2/SC(=S)N(c3cccc(Cl)c3)C2=O)c(C)n1-c1cccnc1 [Compound 171]
IC50 [1, 7]: 15 to 25 µM
inhibition of E. coli DNA gyrase activities ([2]; 50 µM of compounds): completely inhibited

O=C(NN1C(=O)/C(=C\C=C\c2ccco2)SC1=S)c1ccccc1O [Compound 180]
IC50 [1, 7]: 15 to 25 µM
inhibition of E. coli DNA gyrase activities ([2]; 50 µM of compounds): completely inhibited

O=C1N=C(O)/C(=C/c2ccc(N3CCCC3)cc2)C(=O)N1Cc1ccc(F)cc1 [Compound 184]
MIC [4]: 200 µM (≈ 78.7 µg/mL)
IC50 [1, 7]: 15 to 25 µM
MIC [3]: 200 µM (≈ 78.7 µg/mL)
inhibition of E. coli DNA gyrase activities ([2]; 50 µM of compounds): potently inhibited

COC(=O)C1C2CC3c4[nH]c5cc(OC)ccc5c4CCN3CC2CC(OC(=O)c2ccc(N)cc2)C1OC (stereo not drawn) [Compound 204]
IC50 [1, 5]: 50 to 200 µM
inhibition of E. coli DNA gyrase activities ([2]; 200 µM of compounds): potently inhibited

O=C1C(Cl)=C(NCCc2ccccc2)C(=O)c2ccccc21 [Compound 205]
IC50 [1, 5]: 50 to 200 µM
inhibition of E. coli DNA gyrase activities ([2]; 200 µM of compounds): potently inhibited

O=C1c2ccccc2C(=O)c2cc(N3CCCCC3)ccc21 [Compound 206]
IC50 [1, 5]: 50 to 200 µM
inhibition of E. coli DNA gyrase activities ([2]; 200 µM of compounds): potently inhibited

O=C(Cc1ccccc1)c1ccccn1 [Compound 213]
IC50 [1, 5]: 50 to 200 µM
inhibition of E. coli DNA gyrase activities ([2]; 200 µM of compounds): completely inhibited

CCN(CCCNc1cc2c(c(N)c1S(=O)(=O)O)C(=O)c1ccccc1C2=O)c1ccccc1 [Compound 215]
IC50 [1, 6]: 25 to 50 µM
inhibition of E. coli DNA gyrase activities ([2]; 50 µM of compounds): completely inhibited
inhibition of E. coli DNA gyrase activities ([2]; 200 µM of compounds): completely inhibited

Cc1ccc([S+]([O-])c2ccc([N+](=O)[O-])c3nonc23)cc1 (stereo not drawn) [Compound 222]
IC50 [1, 6]: 25 to 50 µM
inhibition of E. coli DNA gyrase activities ([2]; 50 µM of compounds): completely inhibited
inhibition of E. coli DNA gyrase activities ([2]; 200 µM of compounds): completely inhibited

COC1C(C)OC(OC2CC(C)(O)Cc3cc4c(c(O)c32)C(=O)c2c(O)cc3c(c2C4=O)OC2OC3(C)C(O)C(N(C)C)C2O)C(OC)C1(C)OC (stereo not drawn) [Compound 224]
IC50 [1, 6]: 25 to 50 µM
inhibition of E. coli DNA gyrase activities ([2]; 50 µM of compounds): completely inhibited
inhibition of E. coli DNA gyrase activities ([2]; 200 µM of compounds): completely inhibited

CCN1C(=O)C(=CC=CN(C)c2ccccc2)SC1=S [Compound 227]
IC50 [1, 5]: 50 to 200 µM
inhibition of E. coli DNA gyrase activities ([2]; 200 µM of compounds): potently inhibited

CN(C)c1ccc(C=C2SC(=S)N(Cc3ccco3)C2=O)cc1 [Compound 228]
IC50 [1, 5]: 50 to 200 µM
inhibition of E. coli DNA gyrase activities ([2]; 200 µM of compounds): potently inhibited

Cc1cc(O)c2c(c1)C(=O)c1cc(O)cc(O)c1C2=O [Compound 242, Emodin]
inhibition of E. coli DNA gyrase activities [1]: potently inhibited
IC50 [1, 5]: 50 to 200 µM
inhibition of E. coli DNA gyrase activities ([2]; 200 µM of compounds): completely inhibited

O=C1OC2(c3ccccc31)c1cc(I)c(O)c(I)c1Oc1c2cc(I)c(O)c1I [Compound 253, Erythrosin B]
IC50 [1, 8]: < 10 µM
inhibition of E. coli DNA gyrase activities ([2]; 200 µM of compounds): completely inhibited

O=C1c2ccccc2C(=O)c2c1ccc(O)c2O [Compound 256, Alizarin]
IC50 [1, 6]: 25 to 50 µM
IC50 [1, 8]: < 10 µM
inhibition of E. coli DNA gyrase activities ([2]; 200 µM of compounds): completely inhibited
